This data set can be described thus: Pharmacokinetic study in naive mice after intraperitoneal injection. To be noted: 3 mg/kg; for V_F: uncorrected for bioavailability. The procedure: Nine-week-old male Swiss mice (Janvier Labs, Le Genest-Saint-Isle, France), weighing 35–45 g at the time of experimentation, were used. […] Food and tap water were given ad libitum.
Their hind legs were depilated after a 1 min application of a commercial depilatory cream and rinsed with water. Subsequently, the mice were returned to their cages to allow for recovery and complete anesthesia washout. On the day of the experiment, an initial blood sample (20–30 μL) was collected by perforation of the saphenous vein from the mice.
For each treatment group, mice were subdivided into two cohorts, with blood samples collected at distinct time intervals after injection, totaling 14 time points for pharmacokinetic modeling. Compliance with regulatory directives prevented the collection of more than eight blood samples from individual animals. […] Blood samples were acquired using heparinized capillaries containing 2 μL of sodium heparin (Panpharma, France). After collection, the samples were transferred to Eppendorf tubes and centrifuged at 3000 g and 4°C for 10 min. The recovered plasma was then stored at −80°C until analysis. At the end of the experiments, the mice were euthanized by i.p. lethal injection (150 mg/kg) of sodium pentobarbital (Doléthal, Vétoquinol SA, France).
Pharmacokinetic analysis was carried out from the average concentration values at each time point using the Phoenix WinNonLin Version 8.4 software (Certara, Princeton NJ, USA). Pharmacokinetic parameters were determined from the plasma concentration-time data using a compartmental approach and include the total area under the plasma concentration-time curve (AUC0-∞), elimination half-life (t1/2elim), total clearance (CL/F), and volume of distribution (V). CL and V were uncorrected for the bioavailability (F).

[1] abbreviates: male, Swiss, mouse, in vivo, ip.

Structures can show the parent of a compound that is named as a salt.

For the setting “naive mice, i.p.”, `CN1[C@@H]2CC[C@H]1C[C@@H](OC(=O)C(CO)c1ccccc1)C2` (stereo partly shown) [Atropine, Atropine sulfate monohydrate] gave a V_F of 5.204 ± 0.43 L/kg.

Usually AUC stands for the area under the concentration-time curve, a measure of exposure. Lower therefore signals low exposure. Broadly, the CL/F is the apparent clearance, not corrected for the fraction that reaches the circulation. For orientation: Cmax means the highest concentration seen after dosing. For orientation: Tmax means the time from dosing to the highest level. As a reminder, the half-life is the time in which the quantity being followed falls by half. Under setting [1], `C[N+]1(C)[C@@H]2C[C@@H](OC(=O)C(O)(c3cccs3)c3cccs3)C[C@H]1[C@@H]1O[C@@H]12` [Tiotropium, Tiotropium bromide monohydrate] had an AUC of 199 ng·h/mL, a CL/F of 201 ± 5 mL/min/kg and a Cmax of 705 ± 22 ng/mL. Moreover, the Tmax (male, Swiss, mouse, in vivo, ip, T max, naive mice, plasma) was 4.9 min. The compound also yielded a half-life (male, Swiss, mouse, in vivo, ip, t 1/2elim, naive mice, plasma) of around 7.5 min. Also, for the setting “naive mice, i.p., plasma”, the T max amounted to 4.89 ± 0.24 min and the “t 1/2elim” value is given as 7.43 ± 0.12 min. The compound also gave a V_F (naive mice, i.p.) of 2.158 ± 0.075 L/kg. Besides, the “Time after which plasma concentrations were below the LLOQ” value (naive mice, i.p., LLOQ 0.5 ng/mL tiotropium, 1 ng/mL atropine) was 60 min.

(Values after publication PMC11999743 (Journal of Analytical Methods in Chemistry, 2025).)
